Square brackets hold non-standard residues; d marks the D form. Peptide text beside a SMILES is read from it. * marks the point of attachment. ξ: configuration not given here. Phe(3,4-(OMe)2) = COc1ccc(C[C@H](N)C(=O)O)cc1OC; Phe(3-CONH2) = NC(=O)c1cccc(C[C@H](N)C(=O)O)c1; Oic(3aξ,7aξ) = O=C(O)[C@@H]1CC2CCCCC2N1; Pro(4R-NH2) = N[C@H]1CN[C@H](C(=O)O)C1; Dab(3S-OH) = NC[C@H](O)[C@H](N)C(=O)O; Phe(2-F) = N[C@@H](Cc1ccccc1F)C(=O)O; ΔZArg = N=C(N)NCC/C=C(\N)C(=O)O; aThr = C[C@H](O)[C@H](N)C(=O)O; dOrn = NCCC[C@@H](N)C(=O)O; Orn = NCCC[C@H](N)C(=O)O; Dab = NCC[C@H](N)C(=O)O; NH(CH2)5NH2 = NCCCCCN*; NH(CH2)4NH2 = NCCCCN*; ξAze = O=C(O)C1CCN1
What was measured:
Assay in all cases: MIC, broth microdilution (CLSI), reference strain
Conditions in all cases: CAMHB
[1] = test system: Acinetobacter baumannii ATCC 19606
[2] = test system: Escherichia coli ATCC 25922
[3] = test system: Pseudomonas aeruginosa ATCC 27853
[4] = test system: Staphylococcus aureus ATCC 13709

| SMILES | Ab: MIC Acinetobacter baumannii ATCC 19606 [1] | Ec: MIC Escherichia coli ATCC 25922 [2] | Pa: MIC Pseudomonas aeruginosa ATCC 27853 [3] | Sa: MIC Staphylococcus aureus ATCC 13709 [4] |
| --- | --- | --- | --- | --- |
| C[C@H](NC(=O)[C@H](CCN)NC(=O)[C@@H](N)CCCN)C(=O)NCC(=O)N[C@H](CCCN)C(=O)N1CCC[C@H]1C(=O)N[C@@H](Cc1cnc[nH]1)C(=O)N[C@@H](CCCCN)C(=O)N/C(=C\CCNC(=N)N)C(=O)N[C@@H](CCCCN)C(=O)NCCCCN [14.16] (H-[Orn][Dab]AG[dOrn]PHK[ΔZArg]K-{NH(CH2)4NH2}) | − (>32 μg/mL) | − (>32 μg/mL) | − (>32 μg/mL) | ++ (≤8 μg/mL) |
| C[C@H](NC(=O)[C@H](CCN)NC(=O)[C@@H](N)CCCCN)C(=O)NCC(=O)N[C@H](CCCN)C(=O)N1C[C@H](N)C[C@H]1C(=O)N[C@@H](Cc1cnc[nH]1)C(=O)N[C@@H](CCCCN)C(=O)N/C(=C\CCNC(=N)N)C(=O)N[C@@H](CCCCN)C(=O)NCCCCN [14.17] (H-K[Dab]AG[dOrn][Pro(4R-NH2)]HK[ΔZArg]K-{NH(CH2)4NH2}) | − (>32 μg/mL) | − (>32 μg/mL) | − (>32 μg/mL) | ++ (≤8 μg/mL) |
| C[C@H](NC(=O)[C@H](CCN)NC(=O)[C@@H](N)CCCCN)C(=O)NCC(=O)N[C@H](CCCN)C(=O)N1CCC1C(=O)N[C@@H](Cc1cnc[nH]1)C(=O)N[C@@H](CCCCN)C(=O)N/C(=C\CCNC(=N)N)C(=O)N[C@@H](CCCCN)C(=O)NCCCCN (stereo partly drawn) [14.18] (H-K[Dab]AG[dOrn][ξAze]HK[ΔZArg]K-{NH(CH2)4NH2}) | − (>32 μg/mL) | − (>32 μg/mL) | − (>32 μg/mL) | ++ (≤8 μg/mL) |
| C[C@H](NC(=O)[C@H](CCN)NC(=O)[C@@H](N)CCCCN)C(=O)NCC(=O)N[C@H](CCCN)C(=O)N1C2CCCCC2C[C@H]1C(=O)N[C@@H](Cc1cnc[nH]1)C(=O)N[C@@H](CCCCN)C(=O)N/C(=C\CCNC(=N)N)C(=O)N[C@@H](CCCCN)C(=O)NCCCCN (stereo partly drawn) [14.19] (H-K[Dab]AG[dOrn][Oic(3aξ,7aξ)]HK[ΔZArg]K-{NH(CH2)4NH2}) | − (>32 μg/mL) | − (>32 μg/mL) | − (>32 μg/mL) | ++ (≤8 μg/mL) |
| C[C@H](NC(=O)[C@H](CCN)NC(=O)[C@@H](N)CCCCN)C(=O)NCC(=O)N[C@H](CCCN)C(=O)N1CCC[C@H]1C(=O)N[C@@H](Cc1cnc[nH]1)C(=O)N[C@@H](CCCCN)C(=O)N/C(=C\CCNC(=N)N)C(=O)NCCCCCN [14.20] (H-K[Dab]AG[dOrn]PHK[ΔZArg]-{NH(CH2)5NH2}) | − (>32 μg/mL) | − (>32 μg/mL) | − (>32 μg/mL) | + (≤32 μg/mL) |
| C[C@H](NC(=O)[C@H](CCN)NC(=O)[C@@H](N)CCCCN)C(=O)NCC(=O)N[C@H](CCCN)C(=O)N1CCC[C@H]1C(=O)N[C@@H](Cc1cnc[nH]1)C(=O)N[C@@H](CCCCN)C(=O)N/C(=C\CCNC(=N)N)C(=O)N[C@@H](CCCCN)C(=O)O [14.21] (H-K[Dab]AG[dOrn]PHK[ΔZArg]K-OH) | − (>32 μg/mL) | − (>32 μg/mL) | − (>32 μg/mL) | + (≤32 μg/mL) |
| C[C@H](NC(=O)[C@H](CCN)NC(=O)[C@H](N)CCCCN)C(=O)NCC(=O)N[C@H](CCCN)C(=O)N1CCC[C@H]1C(=O)N[C@@H](Cc1cnc[nH]1)C(=O)N[C@@H](CCCCN)C(=O)N/C(=C\CCNC(=N)N)C(=O)N[C@@H](CCCCN)C(=O)NCCCCN [14.22] (H-[dK][Dab]AG[dOrn]PHK[ΔZArg]K-{NH(CH2)4NH2}) | − (>32 μg/mL) | − (>32 μg/mL) | − (>32 μg/mL) | + (≤32 μg/mL) |
| C[C@H](NC(=O)/C(=C/CCNC(=N)N)NC(=O)[C@H](CCCCN)NC(=O)[C@H](Cc1cnc[nH]1)NC(=O)[C@@H]1CCCN1C(=O)[C@@H](CCCN)NC(=O)CNC(=O)[C@H](C)NC(=O)[C@H](CCN)NC(=O)[C@@H](N)CCCCN)C(=O)NCCCCN [14.23] (H-K[Dab]AG[dOrn]PHK[ΔZArg]A-{NH(CH2)4NH2}) | − (>32 μg/mL) | − (>32 μg/mL) | − (>32 μg/mL) | + (≤32 μg/mL) |
| C[C@H](NC(=O)[C@H](CCN)NC(=O)[C@@H](N)CCCCN)C(=O)NCC(=O)N[C@H](CCCN)C(=O)N1CCC[C@H]1C(=O)N[C@@H](Cc1cnc[nH]1)C(=O)N[C@@H](CCCCN)C(=O)N[C@H](CCCNC(=N)N)C(=O)N[C@@H](CCCCN)C(=O)NCCCCN [14.24] (H-K[Dab]AG[dOrn]PHK[dR]K-{NH(CH2)4NH2}) | − (>32 μg/mL) | − (>32 μg/mL) | − (>32 μg/mL) | + (≤32 μg/mL) |
| C[C@H](NC(=O)[C@H](CCN)NC(=O)[C@@H](N)CCN)C(=O)NCC(=O)N[C@H](CCCN)C(=O)N1CCC[C@H]1C(=O)N[C@@H](Cc1cnc[nH]1)C(=O)N[C@@H](CCCCN)C(=O)N/C(=C\CCNC(=N)N)C(=O)N[C@@H](CCCCN)C(=O)NCCCCN [14.25] (H-[Dab][Dab]AG[dOrn]PHK[ΔZArg]K-{NH(CH2)4NH2}) | − (>32 μg/mL) | − (>32 μg/mL) | − (>32 μg/mL) | + (≤32 μg/mL) |
| C[C@H](O)[C@H](NC(=O)[C@H](CCN)NC(=O)[C@@H](N)CCCCN)C(=O)NCC(=O)N[C@H](CCCN)C(=O)N1CCC[C@H]1C(=O)N[C@@H](Cc1cnc[nH]1)C(=O)N[C@@H](CCCCN)C(=O)N/C(=C\CCNC(=N)N)C(=O)N[C@@H](CCCCN)C(=O)NCCCCN [15.1] (H-K[Dab][aThr]G[dOrn]PHK[ΔZArg]K-{NH(CH2)4NH2}) | − (>32 μg/mL) | − (>32 μg/mL) | − (>32 μg/mL) | + (≤32 μg/mL) |
| C[C@@H](O)[C@H](NC(=O)[C@H](CCN)NC(=O)[C@@H](N)CCCCN)C(=O)NCC(=O)N[C@H](CCCN)C(=O)N1CCC[C@H]1C(=O)N[C@@H](Cc1cnc[nH]1)C(=O)N[C@@H](CCCCN)C(=O)N/C(=C\CCNC(=N)N)C(=O)N[C@@H](CCCCN)C(=O)NCCCCN [15.3] (H-K[Dab]TG[dOrn]PHK[ΔZArg]K-{NH(CH2)4NH2}) | − (>32 μg/mL) | − (>32 μg/mL) | − (>32 μg/mL) | ++ (≤8 μg/mL) |
| N=C(N)NCC/C=C(\NC(=O)[C@H](CCCCN)NC(=O)[C@H](Cc1cnc[nH]1)NC(=O)[C@@H]1CCCN1C(=O)[C@@H](CCCN)NC(=O)CNC(=O)[C@H](CO)NC(=O)[C@H](CCN)NC(=O)[C@@H](N)CCCCN)C(=O)N[C@@H](CCCCN)C(=O)NCCCCN [16.1] (H-K[Dab]SG[dOrn]PHK[ΔZArg]K-{NH(CH2)4NH2}) | − (>32 μg/mL) | − (>32 μg/mL) | − (>32 μg/mL) | ++ (≤8 μg/mL) |
| N=C(N)NCC/C=C(\NC(=O)[C@H](CCCCN)NC(=O)[C@H](Cc1cnc[nH]1)NC(=O)[C@@H]1CCCN1C(=O)[C@@H](CCCN)NC(=O)CNC(=O)[C@H](CCN)NC(=O)[C@@H](NC(=O)[C@@H](N)CCCCN)[C@@H](O)CN)C(=O)O [21.2] (H-K[Dab(3S-OH)][Dab]G[dOrn]PHK[ΔZArg]-OH) | − (>32 μg/mL) | ++ (≤8 μg/mL) | − (>32 μg/mL) | ++ (≤8 μg/mL) |
| CC(=O)NCC[C@H](NC(=O)[C@@H](NC(=O)[C@@H](N)CCCCN)[C@@H](O)CN)C(=O)NCC(=O)N[C@H](CCCN)C(=O)N1CCC[C@H]1C(=O)N[C@@H](Cc1cnc[nH]1)C(=O)N[C@@H](CCCCN)C(=O)N/C(=C\CCNC(=N)N)C(N)=O [21.3] (H-K[Dab(3S-OH)][Dab](Ac)G[dOrn]PHK[ΔZArg]-NH2) | − (>32 μg/mL) | − (>32 μg/mL) | − (>32 μg/mL) | ++ (≤8 μg/mL) |
| N=C(N)NCC/C=C(\NC(=O)[C@H](CCCCN)NC(=O)[C@H](Cc1ccccc1F)NC(=O)[C@@H]1CCCN1C(=O)[C@@H](CCCN)NC(=O)CNC(=O)[C@H](CCN)NC(=O)[C@@H](NC(=O)[C@@H](N)CCCCN)[C@@H](O)CN)C(=O)O [21.4] (H-K[Dab(3S-OH)][Dab]G[dOrn]P[Phe(2-F)]K[ΔZArg]-OH) | − (>32 μg/mL) | ++ (≤8 μg/mL) | − (>32 μg/mL) | ++ (≤8 μg/mL) |
| COc1ccc(C[C@H](NC(=O)[C@@H]2CCCN2C(=O)[C@@H](CCCN)NC(=O)CNC(=O)[C@H](CCN)NC(=O)[C@@H](NC(=O)[C@@H](N)CCCCN)[C@@H](O)CN)C(=O)N[C@@H](CCCCN)C(=O)N/C(=C\CCNC(=N)N)C(=O)O)cc1OC [21.5] (H-K[Dab(3S-OH)][Dab]G[dOrn]P[Phe(3,4-(OMe)2)]K[ΔZArg]-OH) | − (>32 μg/mL) | ++ (≤8 μg/mL) | − (>32 μg/mL) | ++ (≤8 μg/mL) |
| N=C(N)NCC/C=C(\NC(=O)[C@H](CCCCN)NC(=O)[C@H](Cc1cccc(C(N)=O)c1)NC(=O)[C@@H]1CCCN1C(=O)[C@@H](CCCN)NC(=O)CNC(=O)[C@H](CCN)NC(=O)[C@@H](NC(=O)[C@@H](N)CCCCN)[C@@H](O)CN)C(=O)O [21.6] (H-K[Dab(3S-OH)][Dab]G[dOrn]P[Phe(3-CONH2)]K[ΔZArg]-OH) | − (>32 μg/mL) | ++ (≤8 μg/mL) | − (>32 μg/mL) | ++ (≤8 μg/mL) |

— patent US10626144B2, “Peptide derivatives and uses thereof” (Nosopharm, priority 2014, dated 2020)
